From US12310969B2, “Antithrombotic compositions and methods for using same” (UNIVERSITY OF NORTH TEXAS, priority 2021, dated 2025)

Tests used:
zebrafish larvae = assay: Laser-induced venous thrombosis, time to occlusion (TTO) of the caudal vein; type: in vivo; settings: 5 dpf larvae, 2 hours
Procedure: (§1) UNC6852 (MedChem Express, Monmouth Junction, NJ), in 10% DMSO in saline were prepared at four different concentrations (0.075 mM, 0.15 mM, 0.3 mM and 0.6 mM). Eight nl of each of these solutions was injected into the 5 dpf larvae and incubated for 2 hours. For controls, 10% DMSO in saline was injected. For adult fish injections, 5 μl of 0.6 mM UNC6852 was injected intravenously and incubated for 6 hours.
For laser-induced venous thrombosis, 5 dpf larvae were transferred into a 1.5 ml Eppendorf tube containing 0.5 ml E3 medium followed by the addition of 10 μl of 10 mM MS222. After 2 minutes of anesthesia, 0.5 ml of 1.6% low melting agarose at 37° C. was added to the Eppendorf tube, and the contents were mixed gently by pipetting up and down using a transfer pipette. […] The slide with the larvae was focused with a 20× objective of the Nikon OPTIPHOT™ fluorescence microscope. The pulsed nitrogen laser with a wavelength of 445 nm, routed through the coumarin-440 dye (Micro Point Laser, Stanford Research Systems Inc., Sunnyvale, CA), was delivered at 10 hits per cycle through the fluorescence port to hit the mid-region in the caudal vein located in the 5th somite posterior to the anal pore.^22 TTO of the vessel was measured as the time taken to occlude the vessel from the time the laser hits the vessel until the vessel completely occludes.

tfpia mRNA = assay: qRT-PCR of tfpia gene expression in liver and spleen of adult zebrafish; type: in vivo; settings: adult fish, 5 μl of 0.6 mM injected intravenously, 6 hours post-injection, vs wild-type control
Procedure: as §1
Adult zebrafish were first anesthetized using 1 mM Tricaine in E3 medium. After 2 minutes, once the zebrafish flips on its side, it was removed from the medium, and an incision was made in the ventral surface from the anal pore up to the gills using a pair of scissors. The visible liver and spleen were retrieved using a pair of forceps. […]
To 1 μl of the liver and spleen RNA (1 μg/μl), 4 μl of QSCRIPT™ (gScript™) cDNA SUPERMIX™ (Quanta Bio, Beverly, MA) and 15 μl of nuclease-free water were added. […] The ΔCt values for WT samples were calculated as a difference between Ct values of β-actin and tfpia. The average ΔCt value for WT was then calculated. […] Similarly, in the knockdown samples, from each ΔCt value, the average ΔCt value of the WT was subtracted, and the resulting ΔΔCt value was calculated, followed by the calculation of fold change.

SMILES: Cc1ncsc1-c1ccc(CNC(=O)[C@@H]2C[C@@H](O)CN2C(=O)[C@@H](NC(=O)CCCNC(=O)c2ccc(-c3cnc(NCc4ccco4)n4cnnc34)cc2)C(C)(C)C)cc1 [UNC6852]
- time to occlusion (TTO) of the caudal vein after laser injury (zebrafish larvae; 8 nl injected intravenously at 0.075, 0.15, 0.3 and 0.6 mM, compared to control larvae (10% DMSO in saline)): dose-dependent prolongation of TTO
- concentration giving maximal prolongation of TTO (zebrafish larvae; 8 nl injected intravenously, 4 concentrations tested (0.075-0.6 mM)): 0.6 mM
- tfpia mRNA levels (fold change of tfpia gene expression in liver and spleen) (tfpia mRNA): increased tfpia mRNA levels
